# Results taken from publication PMC9387934, “Randomized single oral dose phase 1 study of safety, tolerability, and pharmacokinetics of Iminosugar UV-4 Hydrochloride (UV-4B) in healthy subjects” (PLoS Neglected Tropical Diseases, 2022).
# “And” between values parts separate entries of the source, which are not always exact repeats. Identical values can stand only once.
# Experiment: Phase 1a single ascending dose study: UV-4 plasma concentrations and PK parameters (LC-MS/MS, noncompartmental)
# Assay type: in vivo
# Conditions: human plasma
# Description: UV-4 ((2R,3R,4R,5S)-2-(hydroxymethyl)-1-(9-methoxynonyl)piperidine-3,4,5-triol, also called N-(9’-methoxynonyl)-1-deoxynojirimycin, or MON-DNJ) hydrochloride was evaluated in a first-in-human, randomized, single-center, double-blind, placebo-controlled, parallel group, single ascending dose Phase 1a clinical trial in healthy subjects (Figs 1 and 2, ClinicalTrials.gov Identifier NCT02061358 https://clinicaltrials.gov/ct2/show/NCT02061358). The primary objective was to determine the safety and tolerability of a single-ascending oral dose of UV-4 hydrochloride (Fig 3). […] The secondary objective was to determine PK parameters describing absorption and elimination of UV-4 following a single oral dose of UV-4 hydrochloride. Eight cohorts of eight subjects each were enrolled and completed the study. In each cohort, six subjects received UV-4 as the hydrochloride; two received placebo. Subjects were screened against study eligibility criteria up to four weeks (Days -28 to -2) before admission to the clinic (Day -1). Dosing was performed on an inpatient basis. Subjects remained in clinic for 48 hours post-dosing for PK sample collection and safety assessments and were discharged from the clinic on Day 3. Subjects returned to the clinic on Day 4 for additional safety assessments, then again on Day 9 ± 1 for a final follow-up visit.
# Eligible subjects were healthy males and females, age 18–45 years, with a body mass index between 18 and 30 kg/m^2 inclusive and a minimum body weight of 60 kg. Subjects were considered healthy based on medical history, physical exam, vital signs, 12-lead electrocardiogram (ECG), clinical laboratory tests (hematology, blood chemistry, urinalysis), viral serology, and drug and alcohol screening. Male and female subjects of childbearing potential were required to use adequate contraception over the course of the clinical trial. […] Only subjects who met all inclusion and none of the exclusion criteria prior to administration of the investigational product were enrolled into the study (no exemptions were granted). A total of 64 subjects were enrolled (eight cohorts of eight subjects each). In each of the eight cohorts, six subjects were randomized to receive a single dose of UV-4 (3 to 1000 mg, depending on cohort) as the hydrochloride salt, and two subjects to receive placebo. Cohort size of six active subjects was based on analysis that increasing cohort size above six in a first-in-human study gains little in the ability to observe a drug induced event, and results in observing more events that are not related to study drug. Two of the eight subjects in each cohort (sentinel subjects; one active and one placebo) received their doses at least 48 h before the remaining subjects in each cohort.
# On each day of use, bulk drug substance (UV-4B for solubilization, SAI Life Sciences Ltd. Telangana, India) was removed from a single-use container, weighed at the study center, and solubilized in 20 mL sterile water for injection (SWFI) (Hospira Inc. Illinois, United States of America). Weight of solid drug substance was converted to dose of UV-4 by applying purity and salt correction factor per pharmacy manual when preparing the dosing solution. UV-4B solution was administered orally with 10 mL of taste-masking agent, OraSweet-SF (Paddock Laboratories LLC, Minneapolis, United States of America) in a total volume of 30 mL, to assist in maintaining study blinding. Placebo was SWFI (20 mL) plus OraSweet-SF (10 mL). Concentrations and doses were calculated and expressed as the active free base form, UV-4. This methodology is consistent with USP<1121>, which recommends that the strength of a drug product or preparation is expressed in terms of the active moiety. Following consumption of active or placebo solution, the dosing container was rinsed with 50 mL of tap water also consumed by subjects. […]
smiles,measurement,setting,value
COCCCCCCCCCN1C[C@H](O)[C@@H](O)[C@H](O)[C@H]1CO [UV4],CONCENTRATION UV4,"Cohort 2, nominal day 1, nominal hour 0",<LLOQ (0.500) ng/mL
same,CONCENTRATION UV4,"Cohort 3, nominal day 1, nominal hour 0",<LLOQ (0.500) ng/mL
same,CONCENTRATION UV4,"Cohort 4, nominal day 1, nominal hour 0",<LLOQ (0.500) ng/mL
same,CONCENTRATION UV4,"Cohort 4, nominal day 1, nominal hour 0, individual subjects",<LLOQ (0.500) ng/mL and 0.569 ng/mL and 1.02 ng/mL
same,CONCENTRATION UV4,"Cohort 4, nominal day 1, nominal hour 0, subjects with all post-dose samples <LLOQ (treatment arm not given)",0.657 ng/mL
same,CONCENTRATION UV4,"Cohort 4, nominal day 1, nominal hour 0.5",<LLOQ (0.500) ng/mL
same,CONCENTRATION UV4,"Cohort 4, nominal day 1, nominal hour 0.5, individual subjects",439 ng/mL and 598 ng/mL and 942 ng/mL and 1250 ng/mL and 160 ng/mL
same,CONCENTRATION UV4,"Cohort 4, nominal day 1, nominal hour 0.5, subjects with all post-dose samples <LLOQ (treatment arm not given)",<LLOQ (0.500) ng/mL
same,CONCENTRATION UV4,"Cohort 4, nominal day 1, nominal hour 1",<LLOQ (0.500) ng/mL
same,CONCENTRATION UV4,"Cohort 4, nominal day 1, nominal hour 1, individual subjects",589 ng/mL and 571 ng/mL and 858 ng/mL and 762 ng/mL and 642 ng/mL
same,CONCENTRATION UV4,"Cohort 4, nominal day 1, nominal hour 1, subjects with all post-dose samples <LLOQ (treatment arm not given)",<LLOQ (0.500) ng/mL
same,CONCENTRATION UV4,"Cohort 4, nominal day 1, nominal hour 1.5",<LLOQ (0.500) ng/mL
same,CONCENTRATION UV4,"Cohort 4, nominal day 1, nominal hour 1.5, individual subjects",754 ng/mL and 487 ng/mL and 860 ng/mL and 621 ng/mL and 699 ng/mL
same,CONCENTRATION UV4,"Cohort 4, nominal day 1, nominal hour 1.5, subjects with all post-dose samples <LLOQ (treatment arm not given)",<LLOQ (0.500) ng/mL
same,CONCENTRATION UV4,"Cohort 4, nominal day 1, nominal hour 2",<LLOQ (0.500) ng/mL
same,CONCENTRATION UV4,"Cohort 4, nominal day 1, nominal hour 2, individual subjects",583 ng/mL and 406 ng/mL and 636 ng/mL and 479 ng/mL and 610 ng/mL
same,CONCENTRATION UV4,"Cohort 4, nominal day 1, nominal hour 2, subjects with all post-dose samples <LLOQ (treatment arm not given)",<LLOQ (0.500) ng/mL
same,CONCENTRATION UV4,"Cohort 4, nominal day 1, nominal hour 2.5",<LLOQ (0.500) ng/mL
same,CONCENTRATION UV4,"Cohort 4, nominal day 1, nominal hour 2.5, individual subjects",516 ng/mL and 439 ng/mL and 447 ng/mL and 365 ng/mL and 519 ng/mL
same,CONCENTRATION UV4,"Cohort 4, nominal day 1, nominal hour 2.5, subjects with all post-dose samples <LLOQ (treatment arm not given)",<LLOQ (0.500) ng/mL
same,CONCENTRATION UV4,"Cohort 4, nominal day 1, nominal hour 3",<LLOQ (0.500) ng/mL
same,CONCENTRATION UV4,"Cohort 4, nominal day 1, nominal hour 3, individual subjects",495 ng/mL and 428 ng/mL and 393 ng/mL and 327 ng/mL and 437 ng/mL
same,CONCENTRATION UV4,"Cohort 4, nominal day 1, nominal hour 3, subjects with all post-dose samples <LLOQ (treatment arm not given)",<LLOQ (0.500) ng/mL
same,CONCENTRATION UV4,"Cohort 4, nominal day 1, nominal hour 4",<LLOQ (0.500) ng/mL
same,CONCENTRATION UV4,"Cohort 4, nominal day 1, nominal hour 4, individual subjects",368 ng/mL and 298 ng/mL and 302 ng/mL and 236 ng/mL and 338 ng/mL
same,CONCENTRATION UV4,"Cohort 4, nominal day 1, nominal hour 4, subjects with all post-dose samples <LLOQ (treatment arm not given)",<LLOQ (0.500) ng/mL
same,CONCENTRATION UV4,"Cohort 4, nominal day 1, nominal hour 6",<LLOQ (0.500) ng/mL
same,CONCENTRATION UV4,"Cohort 4, nominal day 1, nominal hour 6, individual subjects",184 ng/mL and 187 ng/mL and 216 ng/mL and 141 ng/mL and 189 ng/mL
same,CONCENTRATION UV4,"Cohort 4, nominal day 1, nominal hour 6, subjects with all post-dose samples <LLOQ (treatment arm not given)",<LLOQ (0.500) ng/mL
same,CONCENTRATION UV4,"Cohort 4, nominal day 1, nominal hour 9",<LLOQ (0.500) ng/mL
same,CONCENTRATION UV4,"Cohort 4, nominal day 1, nominal hour 9, individual subjects",101 ng/mL and 118 ng/mL and 128 ng/mL and 70.4 ng/mL and 77.3 ng/mL
same,CONCENTRATION UV4,"Cohort 4, nominal day 1, nominal hour 9, subjects with all post-dose samples <LLOQ (treatment arm not given)",<LLOQ (0.500) ng/mL
same,CONCENTRATION UV4,"Cohort 4, nominal day 1, nominal hour 12",<LLOQ (0.500) ng/mL
same,CONCENTRATION UV4,"Cohort 4, nominal day 1, nominal hour 12, individual subjects",54.3 ng/mL and 66.4 ng/mL and 79.7 ng/mL and 42.1 ng/mL and 37.6 ng/mL
same,CONCENTRATION UV4,"Cohort 4, nominal day 1, nominal hour 12, subjects with all post-dose samples <LLOQ (treatment arm not given)",<LLOQ (0.500) ng/mL
same,CONCENTRATION UV4,"Cohort 4, nominal day 1, nominal hour 18",<LLOQ (0.500) ng/mL
same,CONCENTRATION UV4,"Cohort 4, nominal day 1, nominal hour 18, individual subjects",18.1 ng/mL and 34.0 ng/mL and 43.3 ng/mL and 16.6 ng/mL
same,CONCENTRATION UV4,"Cohort 4, nominal day 1, nominal hour 18, subjects with all post-dose samples <LLOQ (treatment arm not given)",<LLOQ (0.500) ng/mL
same,CONCENTRATION UV4,"Cohort 4, nominal day 2, nominal hour 24, individual subjects",12.5 ng/mL and 26.6 ng/mL and 30.8 ng/mL and 10.2 ng/mL
same,CONCENTRATION UV4,"Cohort 4, nominal day 2, nominal hour 24, subjects with all post-dose samples <LLOQ (treatment arm not given)",<LLOQ (0.500) ng/mL
same,CONCENTRATION UV4,"Cohort 4, nominal day 2, nominal hour 36, individual subjects",4.31 ng/mL and 11.5 ng/mL and 12.0 ng/mL and 3.22 ng/mL
same,CONCENTRATION UV4,"Cohort 4, nominal day 2, nominal hour 36, subjects with all post-dose samples <LLOQ (treatment arm not given)",<LLOQ (0.500) ng/mL
same,CONCENTRATION UV4,"Cohort 4, nominal day 3, nominal hour 48, individual subjects",2.04 ng/mL and 4.82 ng/mL and 6.34 ng/mL and 1.52 ng/mL
same,CONCENTRATION UV4,"Cohort 4, nominal day 3, nominal hour 48, subjects with all post-dose samples <LLOQ (treatment arm not given)",<LLOQ (0.500) ng/mL
